Test system: mice
Assay: effect of stimulating hair growth in dehaired mice
Type: in vivo
Details: 1.0 wt % in water/ethanol/1,3-butylene glycol, 150 μl/day applied on back for 21 days; newly grown hair
Method: To evaluate the adamantane derivatives according to the present disclosure for the effect of stimulating hair growth, each of the adamantane derivatives according to Examples 1-10 is dissolved into a solvent including water/ethanol/1,3-butylene glycol (5/3/2) to a concentration of 1.0 wt %. Next, mice 47-53 days after the birth are dehaired on their backs. Then, mice whose skins on the back portions are clear are selected and grouped by 8 mice per group. Each adamantane derivative having a concentration of 1.0 wt % is applied to each mouse every day in an amount of 150 μl/day for 21 days. After 21 days, newly grown hair is weighed and the weight is compared with negative control.

Structure (SMILES) | Hair weight
N#Cc1ccc(NC(=O)C23CC4CC(CC(C4)C2)C3)cc1C(F)(F)F [Comp. Ex. 1, Adamantan-1-carboxylic acid-(4-cyano-3-trifluoro-phenyl)amide, reference compound] | 59 ± 12 mg
Cc1cc(NC(=O)C23CC4CC(CC(C4)C2)C3)ccc1[N+](=O)[O-] [Example 1, Adamantan-1-carboxylic acid-(3-methyl-4-nitrophenyl)-amide] | 77 ± 11 mg
COc1cc(NC(=O)C23CC4CC(CC(C4)C2)C3)ccc1[N+](=O)[O-] [Example 2, Adamantan-1-carboxylic acid-(3-methoxy-4-nitrophenyl)-amide] | 74 ± 9 mg
O=C(Nc1ccc([N+](=O)[O-])c(Cl)c1)C12CC3CC(CC(C3)C1)C2 [Example 3, Adamantan-1-carboxylic acid-(3-chloro-4-nitrophenyl)-amide] | 72 ± 6 mg
O=C(Nc1ccc([N+](=O)[O-])cc1Cl)C12CC3CC(CC(C3)C1)C2 [Example 4, Adamantan-1-carboxylic acid-(2-chloro-4-nitrophenyl)-amide] | 75 ± 10 mg
COc1cc(NC(=O)C23CC4CC(CC(C4)C2)C3)ccc1C#N [Example 5, Adamantan-1-carboxylic acid-(4-cyano-3-methoxy-phenyl)-amide] | 71 ± 14 mg
N#Cc1ccc(NC(=O)C23CC4CC(CC(C4)C2)C3)c(Cl)c1 [Example 6, Adamantan-1-carboxylic acid-(4-cyano-2-chloro-phenyl)-amide] | 67 ± 12 mg
Cc1cc(C(=O)NC23CC4CC(CC(C4)C2)C3)ccc1[N+](=O)[O-] [Example 7] | 68 ± 8 mg
COc1cc(C(=O)NC23CC4CC(CC(C4)C2)C3)ccc1[N+](=O)[O-] [Example 8] | 70 ± 14 mg

Test system: male and female subjects suffering from excessive secretion of sebum
Assay: effect of inhibiting secretion of sebum (Sebumeter SM810)
Type: in vivo
Details: nourishing cream including the compound applied every day; after 2 weeks
Method: The following test is carried out to evaluate the adamantane derivatives according to Examples 1-10 for the effect of inhibiting secretion of sebum. Twenty male and female subjects suffering from excessive secretion of sebum are selected and allowed to apply nourishing cream including each of Examples 1-10 and nourishing cream of negative control every day at a predetermined site for 4 weeks. Then, Sebumeter SM810 (C&K Electronic Co., Germany) is used to determine the average ratio (%) of decrease in sebum after 2 weeks and 4 weeks.

Structure (SMILES) | Ratio (%) of decrease in sebum After 2 weeks
N#Cc1ccc(NC(=O)C23CC4CC(CC(C4)C2)C3)cc1C(F)(F)F [Comp. Ex. 1, Adamantan-1-carboxylic acid-(4-cyano-3-trifluoro-phenyl)amide, reference compound] | 16.5%
Cc1cc(NC(=O)C23CC4CC(CC(C4)C2)C3)ccc1[N+](=O)[O-] [Example 1, Adamantan-1-carboxylic acid-(3-methyl-4-nitrophenyl)-amide] | 21.5%
COc1cc(NC(=O)C23CC4CC(CC(C4)C2)C3)ccc1[N+](=O)[O-] [Example 2, Adamantan-1-carboxylic acid-(3-methoxy-4-nitrophenyl)-amide] | 19.4%
O=C(Nc1ccc([N+](=O)[O-])c(Cl)c1)C12CC3CC(CC(C3)C1)C2 [Example 3, Adamantan-1-carboxylic acid-(3-chloro-4-nitrophenyl)-amide] | 18.1%
O=C(Nc1ccc([N+](=O)[O-])cc1Cl)C12CC3CC(CC(C3)C1)C2 [Example 4, Adamantan-1-carboxylic acid-(2-chloro-4-nitrophenyl)-amide] | 20.7%
COc1cc(NC(=O)C23CC4CC(CC(C4)C2)C3)ccc1C#N [Example 5, Adamantan-1-carboxylic acid-(4-cyano-3-methoxy-phenyl)-amide] | 18.7%
N#Cc1ccc(NC(=O)C23CC4CC(CC(C4)C2)C3)c(Cl)c1 [Example 6, Adamantan-1-carboxylic acid-(4-cyano-2-chloro-phenyl)-amide] | 17.4%
Cc1cc(C(=O)NC23CC4CC(CC(C4)C2)C3)ccc1[N+](=O)[O-] [Example 7] | 18.1%
COc1cc(C(=O)NC23CC4CC(CC(C4)C2)C3)ccc1[N+](=O)[O-] [Example 8] | 19.8%

Same assay, conditions: nourishing cream including the compound applied every day; after 4 weeks

Structure (SMILES) | Ratio (%) of decrease in sebum After 4 weeks
N#Cc1ccc(NC(=O)C23CC4CC(CC(C4)C2)C3)cc1C(F)(F)F [Comp. Ex. 1, Adamantan-1-carboxylic acid-(4-cyano-3-trifluoro-phenyl)amide, reference compound] | 26.2%
Cc1cc(NC(=O)C23CC4CC(CC(C4)C2)C3)ccc1[N+](=O)[O-] [Example 1, Adamantan-1-carboxylic acid-(3-methyl-4-nitrophenyl)-amide] | 35.2%
COc1cc(NC(=O)C23CC4CC(CC(C4)C2)C3)ccc1[N+](=O)[O-] [Example 2, Adamantan-1-carboxylic acid-(3-methoxy-4-nitrophenyl)-amide] | 28.8%
O=C(Nc1ccc([N+](=O)[O-])c(Cl)c1)C12CC3CC(CC(C3)C1)C2 [Example 3, Adamantan-1-carboxylic acid-(3-chloro-4-nitrophenyl)-amide] | 27.6%
O=C(Nc1ccc([N+](=O)[O-])cc1Cl)C12CC3CC(CC(C3)C1)C2 [Example 4, Adamantan-1-carboxylic acid-(2-chloro-4-nitrophenyl)-amide] | 29.7%
COc1cc(NC(=O)C23CC4CC(CC(C4)C2)C3)ccc1C#N [Example 5, Adamantan-1-carboxylic acid-(4-cyano-3-methoxy-phenyl)-amide] | 32.8%
N#Cc1ccc(NC(=O)C23CC4CC(CC(C4)C2)C3)c(Cl)c1 [Example 6, Adamantan-1-carboxylic acid-(4-cyano-2-chloro-phenyl)-amide] | 31.4%
Cc1cc(C(=O)NC23CC4CC(CC(C4)C2)C3)ccc1[N+](=O)[O-] [Example 7] | 29.8%
COc1cc(C(=O)NC23CC4CC(CC(C4)C2)C3)ccc1[N+](=O)[O-] [Example 8] | 33.7%

Test system: Rat-derived follicle dermal papilla cells
Assay: growth of dermal papilla cells (MTT)
Type: cell-based
Details: 10 μg/ml, 48 hours, MTT absorbance at 570 nm relative to DMSO control (100), read-out: Ratio (%) of growth of dermal papilla cells
Method: Rat-derived follicle dermal papilla cells cultured in Dulbecco's modified Eagle's media (DMEM) containing 2% of fetal bovine serum are dispensed to a 96-well microtiter plate to 1,000 cells/well. As positive control, minoxidil diluted to a concentration of 10 μg/ml is added. Each of the adamantane derivatives according to Examples 1-10 diluted to a concentration of 10 μg/ml is added, followed by culturing at 37° C. for 48 hours. After culturing, 0.2% 3-[4,5-dimethylthiazol-2-yl]-2,5-diphenyltetrazolium bromide (MTT) solution is added to each well in an amount of 50 μl, followed by culturing at 37° C. for 4 hours. Then, the produced formazane is dissolved with dimethyl sulfoxide (DMSO). A microplate reader is used to determine the absorbance of the dissolved formazane at 570 nm. The absorbance is compared with the absorbance of control treated with DMSO solution alone and the ratio (%) of growth of dermal papilla cells is evaluated based on the relative difference.

Structure (SMILES) | activity at 10 µg/mL
N#Cc1ccc(NC(=O)C23CC4CC(CC(C4)C2)C3)cc1C(F)(F)F [Comp. Ex. 1, Adamantan-1-carboxylic acid-(4-cyano-3-trifluoro-phenyl)amide, reference compound] | 114%
Cc1cc(NC(=O)C23CC4CC(CC(C4)C2)C3)ccc1[N+](=O)[O-] [Example 1, Adamantan-1-carboxylic acid-(3-methyl-4-nitrophenyl)-amide] | 124%
COc1cc(NC(=O)C23CC4CC(CC(C4)C2)C3)ccc1[N+](=O)[O-] [Example 2, Adamantan-1-carboxylic acid-(3-methoxy-4-nitrophenyl)-amide] | 124%
O=C(Nc1ccc([N+](=O)[O-])c(Cl)c1)C12CC3CC(CC(C3)C1)C2 [Example 3, Adamantan-1-carboxylic acid-(3-chloro-4-nitrophenyl)-amide] | 118%
O=C(Nc1ccc([N+](=O)[O-])cc1Cl)C12CC3CC(CC(C3)C1)C2 [Example 4, Adamantan-1-carboxylic acid-(2-chloro-4-nitrophenyl)-amide] | 130%
COc1cc(NC(=O)C23CC4CC(CC(C4)C2)C3)ccc1C#N [Example 5, Adamantan-1-carboxylic acid-(4-cyano-3-methoxy-phenyl)-amide] | 145%
N#Cc1ccc(NC(=O)C23CC4CC(CC(C4)C2)C3)c(Cl)c1 [Example 6, Adamantan-1-carboxylic acid-(4-cyano-2-chloro-phenyl)-amide] | 124%
Cc1cc(C(=O)NC23CC4CC(CC(C4)C2)C3)ccc1[N+](=O)[O-] [Example 7] | 123%
COc1cc(C(=O)NC23CC4CC(CC(C4)C2)C3)ccc1[N+](=O)[O-] [Example 8] | 125%
Nc1cc(N2CCCCC2)nc(N)[n+]1[O-] [minoxidil, reference compound] | 120%

Molecular target: T1, androgen receptor (AR) (Homo sapiens, UniProt P10275, T878A)
T1 construct: wild type androgen receptor (AR) is obtained by isolating cytoplasm fraction from LNCaP cell line; host or cells: LNCaP cytoplasm fraction
T1 sequence (P10275 1-920 T878A): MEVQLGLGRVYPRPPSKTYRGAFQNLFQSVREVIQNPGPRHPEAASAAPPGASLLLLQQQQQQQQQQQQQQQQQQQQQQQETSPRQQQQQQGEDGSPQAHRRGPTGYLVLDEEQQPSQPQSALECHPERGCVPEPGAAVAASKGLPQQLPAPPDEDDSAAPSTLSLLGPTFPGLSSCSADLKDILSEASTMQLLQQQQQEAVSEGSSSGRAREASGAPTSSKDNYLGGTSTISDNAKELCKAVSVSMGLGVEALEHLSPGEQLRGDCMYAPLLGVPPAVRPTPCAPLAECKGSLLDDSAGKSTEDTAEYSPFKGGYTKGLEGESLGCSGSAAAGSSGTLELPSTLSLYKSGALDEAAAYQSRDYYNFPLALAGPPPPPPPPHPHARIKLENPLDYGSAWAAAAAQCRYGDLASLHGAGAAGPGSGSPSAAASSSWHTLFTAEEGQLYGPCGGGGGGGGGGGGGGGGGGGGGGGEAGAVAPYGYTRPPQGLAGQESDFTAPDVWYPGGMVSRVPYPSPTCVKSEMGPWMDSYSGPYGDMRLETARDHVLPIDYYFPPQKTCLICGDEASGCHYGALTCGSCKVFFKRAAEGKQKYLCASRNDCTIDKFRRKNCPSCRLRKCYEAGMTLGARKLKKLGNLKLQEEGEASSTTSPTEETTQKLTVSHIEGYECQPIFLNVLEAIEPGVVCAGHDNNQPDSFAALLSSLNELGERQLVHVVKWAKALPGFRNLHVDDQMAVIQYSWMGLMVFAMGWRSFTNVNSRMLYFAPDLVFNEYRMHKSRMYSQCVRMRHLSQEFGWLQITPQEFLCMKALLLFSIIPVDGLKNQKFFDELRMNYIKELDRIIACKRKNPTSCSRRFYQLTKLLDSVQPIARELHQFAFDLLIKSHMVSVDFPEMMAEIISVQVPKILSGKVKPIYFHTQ
Assay: competitive steroid binding assay ([3H] methyltrienolone displacement)
Details: not given
Method: This assay determines whether or not the adamantane derivative according to the present disclosure is bound to androgen receptor (AR) competitively with methyltrienolone, which is an agonist to androgen receptor.
Such competitive steroid binding assay is carried out by introducing tritium-labeled methyltrienolone as a ligand for androgen receptor, introducing test samples non-labeled with radio isotope thereto at a different concentration, and checking whether or not the test samples are bound to androgen receptor competitively with the ligand, methyltrienolone. In this manner, the test samples are evaluated for their anti-androgenic effects. Herein, the level of the remaining isotope, tritium, is measured to determine whether or not the test samples are bound to androgen receptor competitively with the ligand, methyltrienolone.
Particularly, wild type androgen receptor (AR) is obtained by isolating cytoplasm fraction from LNCaP cell line (ATCC® CRL-1740™). […] The reaction is carried out at 4° C. for 24 hours and the reaction mixture is filtered and washed. Then, radio activity is measured in each ligand bound to the receptor.

Structure (SMILES) | IC50
N#Cc1ccc(NC(=O)C23CC4CC(CC(C4)C2)C3)cc1C(F)(F)F [Comp. Ex. 1, Adamantan-1-carboxylic acid-(4-cyano-3-trifluoro-phenyl)amide, reference compound] | 11.4 µM

Same assay, conditions: wild type AR from LNCaP cytoplasm fraction; [3H] methyltrienolone; 4° C. for 24 hours

Structure (SMILES) | IC50
O=C(Nc1ccc([N+](=O)[O-])c(Cl)c1)C12CC3CC(CC(C3)C1)C2 [Example 3, Adamantan-1-carboxylic acid-(3-chloro-4-nitrophenyl)-amide] | 0.44 µM
COc1cc(NC(=O)C23CC4CC(CC(C4)C2)C3)ccc1C#N [Example 5, Adamantan-1-carboxylic acid-(4-cyano-3-methoxy-phenyl)-amide] | 2.2 µM
N#Cc1ccc(NC(=O)C23CC4CC(CC(C4)C2)C3)c(Cl)c1 [Example 6, Adamantan-1-carboxylic acid-(4-cyano-2-chloro-phenyl)-amide] | 2.4 µM
COc1cc(NC(=O)C23CC4CC(CC(C4)C2)C3)ccc1F [Example 17, Adamantan-1-carboxylic Acid (4-fluoro-3-methoxyphenyl)amide] | 14.8 µM
COc1cc(NC(=O)C23CC4CC(CC(C4)C2)C3)ccc1Br [Example 19, Adamantan-1-carboxylic Acid (4-bromo-3-methoxyphenyl)amide] | 5.3 µM
O=C(Nc1cccc([N+](=O)[O-])c1)C12CC3CC(CC(C3)C1)C2 [Example 23, Adamantan-1-carboxylic Acid (3-nitrophenyl)amide] | 13.5 µM

Results, then the compound that gave them:

IC50 | Structure (SMILES)
1.2 µM | Cc1cc(NC(=O)C23CC4CC(CC(C4)C2)C3)ccc1[N+](=O)[O-] [Example 1, Adamantan-1-carboxylic acid-(3-methyl-4-nitrophenyl)-amide]
0.24 µM | COc1cc(NC(=O)C23CC4CC(CC(C4)C2)C3)ccc1[N+](=O)[O-] [Example 2, Adamantan-1-carboxylic acid-(3-methoxy-4-nitrophenyl)-amide]
1.4 µM | O=C(Nc1ccc([N+](=O)[O-])cc1Cl)C12CC3CC(CC(C3)C1)C2 [Example 4, Adamantan-1-carboxylic acid-(2-chloro-4-nitrophenyl)-amide]
1.9 µM | Cc1cc(C(=O)NC23CC4CC(CC(C4)C2)C3)ccc1[N+](=O)[O-] [Example 7]
0.74 µM | COc1cc(C(=O)NC23CC4CC(CC(C4)C2)C3)ccc1[N+](=O)[O-] [Example 8]
1.2 µM | COc1cc([N+](=O)[O-])ccc1NC(=O)C12CC3CC(CC(C3)C1)C2 [Example 25, Adamantan-1-carboxylic Acid (2-methoxy-4-nitrophenyl)amide]
